Numbers after ± are expanded uncertainties.
Legend:
[1] = Liquid; for mass density: 293.15 K, 101.33 kPa, Vibrating tube method; for Normal boiling temperature: Ebulliometric method (Recirculating still)
[2] = refractive index (Na D-line) (dimensionless); details: 293.15 K; 101.33 kPa; Liquid; Standard Abbe refractometry

mass density [1] [kg/m3]	Normal boiling temperature [1] [°C]	refractive index [2]	Compound
790 ± 1	78.40 ± 0.5	1.3616 ± 0.0008	CCO [ethanol]
813.7 ± 1	137.80 ± 0.51	1.4087 ± 0.0008	CCCCCO [pentan-1-ol]
801.7 ± 1	107.00 ± 0.5	1.3955 ± 0.0008	CC(C)CO [2-methyl-1-propanol]
998.4 ± 1	100.1 ± 0.5	1.3328 ± 0.0008	O [water]

Source: the NIST ThermoML archive (doi:10.1016/j.fluid.2013.03.029)
